Measured values reported in patent US20070060550A1, “Methods of determining compounds useful in the treatment of bipolar disorder and methods of treating such disorders” (priority 2005, published 2007).

Tests used:
[1] = test system: cortical neurons; experiment: 3H-CDP-DAG accumulation assay of PIns recycling in carbachol-stimulated neurons; type: cell-based
Description: PIns recycling that is limited by the supply of inositol can be assessed by loading cells with ^3H-cytidine, stimulating the cells with carbachol in the presence or absence of lithium, precipitating protein with trichloracetic acid, and then determining how much ^3H accumulates as ^3H-CDP-DAG in the lipid membrane compartment, which can be extracted with chloroform. […] Compounds specifically for this purpose may be designed by a number of computer programs suitable for this purpose.
A suitable screen therefore will determine compounds that can reverse the effect of lithium as measured by the accumulation of CDP-DAG in carbachol-stimulated neurons. Another means of screening for drugs that reverse the effect of lithium on PIns recycling is to screen for drugs that alter the supply of intracellular inositol in neurons by labelling them with titriated inositol and analysing the patterns of cytosolic inositol phosphates and membrane phoshoinositides: the novelty of this approach is to use cortical neurons rather than non-neural cells or neural cell lines. […] Additional known tricyclics such as protriptyline that could also be tested. […] The same assays can be used to test for other compounds that stimulate PIns cycling including other inhibitors of prolyl oligopeptidase activity.
The accumulation of tritiated CDP-DAG in the membrane fraction after loading cells with ^3H-cytidine or the incorporation of ^32P orthophosphate into membrane phospholipids can be used to assess changes in synthetic patterns in the presence or absence of compounds needing to be tested.

[2] = test system: sensory neuron growth cones; experiment: growth cone collapse / morphology in cultured neurons; type: cell-based
Description: I used the growth cones as a model system for assessing changes in intracellular signalling events in response to drugs: The growth cones have some properties in common with presynaptic nerve terminals in the brain. I argued that, if the signalling changes we see in the growth cones of cultured neurons also occur in mature brain synapses in mood-related circuits, then these changes in neuronal signalling in response to the drugs would very likely affect synaptic transmission and thus also affect mood.
Another method of screening for suitable drugs for the prophylactic treatment of bipolar disorder is to look for compounds that have dual effects on the morphology of growth cones. Suitable compounds are those that can inhibit the collapse of growth cones in a way that is reversed by increasing extracellular inositol to 3 mM as well as reverse the effects of 20 μM carbamazepine or 3 mM valproic acid on the collapse of growth cones. Lamotrigine has such properties.

[3] = test system: sensory neuron growth cones; conditions: Williams et al., 2002; cited from earlier work
[4] = target: T1, prolyl oligopeptidase (Homo sapiens, UniProt P48147); experiment: prolyl oligopeptidase fluorogenic enzyme assay (Z-Gly-Pro-aminomethyl coumarin); type: biochemical; conditions: for effect on prolyl oligopeptidase proteolytic activity: FIG. 9
T1 construct: poly-histidine; made in house; host or cells: E. coli
T1 sequence (P48147 1-710): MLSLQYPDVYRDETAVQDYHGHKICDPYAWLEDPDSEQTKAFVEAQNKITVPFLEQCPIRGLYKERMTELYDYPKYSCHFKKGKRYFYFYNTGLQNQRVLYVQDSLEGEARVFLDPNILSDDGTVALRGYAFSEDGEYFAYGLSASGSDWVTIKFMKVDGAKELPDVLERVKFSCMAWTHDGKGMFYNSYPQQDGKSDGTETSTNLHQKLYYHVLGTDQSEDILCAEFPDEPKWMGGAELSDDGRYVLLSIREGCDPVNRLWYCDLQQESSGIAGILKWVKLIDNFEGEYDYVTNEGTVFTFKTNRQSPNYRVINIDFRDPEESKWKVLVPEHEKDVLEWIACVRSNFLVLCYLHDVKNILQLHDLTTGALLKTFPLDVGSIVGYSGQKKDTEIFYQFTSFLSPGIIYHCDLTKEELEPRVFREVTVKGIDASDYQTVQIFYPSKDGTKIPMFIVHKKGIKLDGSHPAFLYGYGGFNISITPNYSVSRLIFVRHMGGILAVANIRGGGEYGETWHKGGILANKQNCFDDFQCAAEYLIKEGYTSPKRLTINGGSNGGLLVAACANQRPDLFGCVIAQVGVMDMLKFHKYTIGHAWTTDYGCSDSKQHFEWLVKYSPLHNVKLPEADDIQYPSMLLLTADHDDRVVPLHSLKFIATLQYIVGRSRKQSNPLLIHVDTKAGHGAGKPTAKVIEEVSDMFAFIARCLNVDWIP
Description: For inhibitors of the enzymatic activity on the enzyme prolyl oligopeptidase, the relevant references for several assays can be found in Cheng et al., MCN 2005. Common assays use a peptide-based substrate which, when cleaved from a prorlyl bond, releases a fluorogenic signal that can be quantitated by spectrocopy.
Conveniently, the effect of the candidate compounds that inhibit enzyme activity can be assessed using a labeled substrate that is cleaved or otherwise modified by prolyl oligopeptidase to produce a detachable change such as release of a label. Thus, it is possible to screen candidate inhibitors by measuring the change in the signal from the label caused by the action of prolyl oligopeptidase in the presence and absence of a candidate inhibitor compound. A preferred substrate may be one in which a fluorescent label is employed, such as Z-Gly-Pro-aminomethyl coumarin.
Conveniently, prolyl oligopeptidase enzyme assays can be carried out using a standard fluorogenic assay with the synthetic substrate Z-Gly-Pro-aminomethyl coumarin obtained from Bachem, Switzerland. Recominant prolyl oligopeptidase was produced in E. coli transfected with cDNA encoding the human form of prolyl oligopeptidase cloned into a bacterial expression vector containing either an N-or a C-terminal poly-histidine tag in order to purify the expressed protein. cDNA encoding human […] can be obtained from the MRC's HGMP Resource Center, Hinxton Hall Cambridge, UK (Clone Image No. 3614248).

[5] = test system: HMIT; conditions: compared with SMIT; cited from earlier work
[6] = in vivo; cited from earlier work

**Q.** For CN1c2ccccc2C(NCCCCCCC(=O)O)c2ccc(Cl)cc2S1(=O)=O (stereo not drawn) [tianeptine], which “effective doses in the 3H-CDP-DAG assay” value ([1]; abolition of lithium-induced accumulation, carbachol-stimulated neurons) is on record?
**A.** 10^−6-10^−5 M

**Q.** What about the “effect on lithium-induced accumulation of 3H-CDP-DAG” value ([1]; carbachol-stimulated neurons, in presence of lithium) of the same compound?
**A.** abolished the lithium-induced accumulation

**Q.** And the “effect alone in the 3H-CDP-DAG assay” value ([1]; compound alone)?
**A.** no effect alone

**Q.** Which “reversal of the action of carbamazepine or valproic acid on the growth cones” value ([2]; 20 μM carbamazepine or 3 mM valproic acid) does the source give for Nc1nnc(-c2cccc(Cl)c2Cl)c(N)n1 [lamotrigine] here?
**A.** can reverse the action of either carbamazepine or valproic acid on the growth cones

**Q.** And the “effect on collapse of growth cones” value ([2]; compound alone)?
**A.** inhibits the collapse of growth cones

**Q.** What about the “reversal of the growth cone effect by inositol” value ([2]; increased extracellular inositol (3 mM)) of the same compound?
**A.** reversed by increasing the extracellular concentration of inositol

**Q.** What does the source list for NC(=O)N1c2ccccc2C=Cc2ccccc21 [carbamazepine]?
**A.** effect on collapse of sensory neuron growth cones and growth cone area [3]: inhibit the collapse of sensory neuron growth cones and increase growth cone area; effect on prolyl oligopeptidase proteolytic activity [4]: Only valproic acid inhibited the enzyme

**Q.** With CNCCCN1c2ccccc2CCc2ccccc21 [desipramine] as the compound, how does the “concentrations at which the antidepressants act on the PIns cycle” value [1] read?
**A.** micromolar

**Q.** And the “effect on prolyl oligopeptidase proteolytic activity” value [4]?
**A.** Only valproic acid inhibited the enzyme

**Q.** Which results are given for CNCCC(Oc1ccc(C(F)(F)F)cc1)c1ccccc1 (stereo not drawn) [fluoxetine]?
**A.** concentrations at which the antidepressants act on the PIns cycle [1]: micromolar; reversal of the inhibitory effects of mood stabilizers on the PIns cycle ([1]; cycle first perturbed with lithium, valproic acid or carbamazepine): can reverse the inhibitory effects of lithium, valproic acid and carbamazepine on the PIns cycle; effect on prolyl oligopeptidase proteolytic activity [4]: Only valproic acid inhibited the enzyme

**Q.** For O=C(CCc1ccc(O)cc1)c1c(O)cc(O)cc1O [phloretin], which “strength of HMIT inhibition” value [5] is on record?
**A.** weak inhibitors of HMIT

**Q.** With CCCC(CCC)C(=O)O [valproic acid] as the compound, how does the “effect on collapse of sensory neuron growth cones and growth cone area” value [3] read?
**A.** inhibit the collapse of sensory neuron growth cones and increase growth cone area

**Q.** And the “effect on prolyl oligopeptidase proteolytic activity” value [4]?
**A.** inhibited the enzyme

**Q.** And the Ki ([4]; read-out: Ki for direct inhibition of PO)?
**A.** ~1000 µM

**Q.** And the therapeutic blood levels [6]?
**A.** 0.3 to 0.7 mM
